# Assay results published in US20120301895A1, “METHODS OF MODULATING BINDING OF SON OF SEVENLESS TO PHOSPHATIDIC ACID AND IDENTIFYING COMPOUNDS THAT MODULATE SUCH BINDING” (THE RESEARCH FOUNDATION OF STATE UNIVERSITY OF NEW YORK, priority 2007, published 2012).
# Assays:
# T24 cells = test: Cell viability and PARP cleavage in T24 cells; format: cell-based, human; settings: honokiol 20 μM, 0.5% serum
# Procedure: (§1) In FIG. 17A, T24 and Calu1 cells (obtained from the American Type Culture Collection) were plated in DMEM containing 10% serum for 48 hr and then shifted to either 10% serum or 0.5% serum overnight as indicated. Honokiol (20 μM) or control ethanol was then added for 4 hr as indicated. [^3H]-Myristate was added with the honokiol. After 4 hr, BtOH (0.7%) was added for 20 min, at which time the cells were harvested and the level of phosphatidyl-BtOH (P-Bt) was determined as in FIGS. 12A-C. The experiments shown are representative of at least two independent experiments. In FIG. 17B, T24 and Calu-1 cells were plated in DMEM with 10% serum for 48 hr then changed to DMEM containing either 10% or 0.5% serum overnight as indicated. Honokiol (20 μM) or control ethanol was then added either at the time of changing media (24 hr), or 4 hr before harvesting as in FIGS. 14A-E, at which time the cells were examined for cell viability or PARD cleavage. […]
# Cell viability was determined by trypan blue exclusion. […] After 10 min, trypan blue uptake (dead cells) was determined by counting on a hemocytometer. Apoptosis was evaluated by examination of cleavage of the caspase 3 substrate PARP as described previously (Chen et al., “Alternative Phospholipase D/mTOR Survival Signal in Human Breast Cancer Cells,” Oncogene 24:672-9 (2005), which is hereby incorporated by reference in its entirety). […]
# [1] = test system: PLD activity in T24 cells; test: In vivo PLD activity in T24 bladder cancer cells; format: cell-based, human; settings: honokiol 20 μM, 4 hr
# Procedure: as §1, with “indicated.” for “indicated. Honokiol (20 μM) or control ethanol was then added either at the time of changing media (24 hr), or 4 hr before harvesting as in FIGS. 14A-E, at which time the cells were examined for cell viability or PARD cleavage.”
# For in vivo PLD activity, cells were plated in 60 mm culture dishes in DMEM with 10% serum at a density that would allow them to grow to about 80% confluence after 2 days, then cells were shifted to DMEM containing 0.5% or 10% serum as indicated in the figure legends overnight. […] Briefly, PLD activity was measured by the release of [methyl-^3H] choline from [choline-methyl-^3H]dipalmitoyl-phosphatidylcholine. […] Free [methyl-^3H] choline was separated from precipitated lipids and proteins by centrifugation and was analyzed by liquid scintillation counting. […]
smiles,measurement,setting,value
"C=CCc1ccc(O)c(-c2ccc(O)c(CC=C)c2)c1 [honokiol, Honokiol]",PARP cleavage,T24 cells,induced
same,cell death,T24 cells,induced
same,stress-induced PLD activity,[1]; 0.5% serum,suppressed
same,PLD activity observed in the presence of serum,[1]; 10% serum,little effect
